Reference: PMC12280724 (Frontiers in Pharmacology, 2025)

Legend:
[1] = In vivo biodistribution of [^99mTc]Tc-carvedilol in healthy Swiss albino mice; details: for [^99mTc]Tc-carvedilol percentages of injected dose per Gram organ: i.v. tail vein
Source text: For biodistribution and receptor occupancy studies, 24 healthy adult Swiss albino mice (12 males and 12 females, aged 10–12 weeks, weighing 25–30 g) were obtained from the Egyptian National Research Center. Mice outside the 25–30 g weight range were excluded to ensure consistency in the biodistribution outcomes. Prior to the study, animals were housed in groups of four with ad libitum access to food and water and underwent a 2-week acclimatization period. After this adaptation phase, the mice were randomly assigned to the study groups using the lot-drawing method.
Given ^99mTc’s physical half-life of approximately 6 h, shorter imaging and sampling intervals are generally preferred to maximize radioactive signal fidelity and minimize decay-related variability. At 24 h post-injection, the residual ^99mTc activity could fall below quantifiable thresholds, potentially compromising the precision of biodistribution data. To prevent this, all data collection was restricted to early post-injection intervals—specifically […]—when radioactivity levels remain within optimal detection ranges for gamma counting. By omitting the 24 h time point altogether, the study design ensured that the radiotracer signal would be robust enough to yield statistically reliable biodistribution profiles without being confounded by the isotope’s exponential decay. Additionally, prior pilot studies were conducted to empirically determine the time window during which the radiochemical integrity and quantification signal-to-noise ratio remained analytically valid. These informed the exclusion of late-phase sampling and reinforced confidence in the reliability of kinetic data collected within the defined 6 h observation window. Therefore, six mice were euthanized at each selected time point via standardized cervical dislocation performed by trained personnel in accordance with institutional animal care guidelines. The procedure followed the AVMA Guidelines for the Euthanasia of Animals ([Kirkwood, 2013]), ensuring it was rapid, humane, and reproducible. To ensure procedural consistency, all cervical dislocations were performed by the same experienced researcher, following pre-established protocols that involved correct animal positioning, anatomical landmark identification, and verification of death through cessation of heartbeat and respiration. Immediately postmortem, body weight was recorded, and blood was collected via cardiac puncture.
Organ harvesting included the collection of the heart, liver, lungs, kidneys, spleen, stomach, intestines, muscle (right leg), bone, and brain. Following dissection, tissues were gently rinsed with isotonic saline to remove residual blood, promptly weighed, kept at low temperatures, and immediately subjected to gamma counting to preserve radiochemical integrity and avoid post-collection decay artifacts. No storage or freezing was used to prevent degradation or leakage of [^99mTc]Tc-carvedilol. Sample processing occurred in a shielded, on-site laboratory adjacent to the dissection area, ensuring minimal delay—typically less than 2 to 3 minutes—between collection and measurement.
To ensure methodological rigor and reproducibility, both experimental and computational components of the study were supported by a structured statistical framework. A total of 24 healthy albino mice (12 males, 12 females), aged 10–12 weeks and weighing 25 ± 3 g, were selected based on uniform health status, age, and weight to minimize inter-animal variability. Animals were maintained under controlled laboratory conditions (12-h light/dark cycle, standardized humidity, and temperature) with unrestricted access to food and water. For biodistribution analysis, animals were randomly assigned to four experimental groups, each consisting of six mice, each representing a distinct post-injection time point (15, 30, 60, and 120 min). […]

[2] = In vitro stability in human serum at 37 °C; assay type: in vitro ADME; details: at 24 h
Protocol: Aliquots (0.2 mL) were withdrawn at predefined intervals and analyzed using a paper chromatographic technique ([Rathmann et al., 2019]). Chromatographic separation was carried out using a Shimadzu system ([Shimadzu Corporation]) (Genzo Shimadzu Sr., Kyoto, Japan), comprising LC-9A pumps, a Rheodyne injector (Model 7125), and an ultraviolet spectrophotometer detector (SPD-6A, Shimadzu). The mobile phase consisted of acetonitrile and water (65:35) containing 0.1% trifluoroacetic acid, delivered at a flow rate of 1.0 mL/min. […] Separated fractions were collected for up to 12 min, and the radiochemical integrity was subsequently evaluated using a well-type NaI(Tl) ([Al Oraini, 2018]) detector linked to a single-channel analyzer.

COc1ccccc1OCC[N]1CC(COc2cccc3[nH]c4ccccc4c23)[O][99Tc]12(=[O])[O]C(COc1cccc3[nH]c4ccccc4c13)C[N]2CCOc1ccccc1OC (racemic) [[^99mTc]Tc-carvedilol]
[^99mTc]Tc-carvedilol percentages of injected dose per Gram organ ([1]; Kidneys, 60 min post-injection): 24.392 ± 0.345 % ID/g organ
[^99mTc]Tc-carvedilol percentages of injected dose per Gram organ ([1]; Kidneys, 120 min post-injection): 29.284 ± 0.012 % ID/g organ
Residual [^99mTc]Tc-carvedilol percentages of injected dose per Gram in non-targeted organs ([1]; Liver row, 15 min post-injection): 92.740 ± 0.03 % ID/g
Residual [^99mTc]Tc-carvedilol percentages of injected dose per Gram in non-targeted organs ([1]; Liver row, 30 min post-injection): 95.149 ± 0.01 % ID/g
Residual [^99mTc]Tc-carvedilol percentages of injected dose per Gram in non-targeted organs ([1]; Liver row, 120 min post-injection): 93.895 ± 0.04 % ID/g
[^99mTc]Tc-carvedilol percentages of injected dose per Gram organ ([1]; Liver, 15 min post-injection): 7.255 ± 0.023 % ID/g organ
[^99mTc]Tc-carvedilol percentages of injected dose per Gram organ ([1]; Liver, 30 min post-injection): 4.841 ± 0.568 % ID/g organ
[^99mTc]Tc-carvedilol percentages of injected dose per Gram organ ([1]; Liver, 120 min post-injection): 6.045 ± 1.020 % ID/g organ
Residual [^99mTc]Tc-carvedilol percentages of injected dose per Gram in non-targeted organs ([1]; Lung row, 15 min post-injection): 98.710 ± 0.01 % ID/g
Residual [^99mTc]Tc-carvedilol percentages of injected dose per Gram in non-targeted organs ([1]; Lung row, 30 min post-injection): 92.205 ± 0.01 % ID/g
Residual [^99mTc]Tc-carvedilol percentages of injected dose per Gram in non-targeted organs ([1]; Lung row, 60 min post-injection): 95.410 ± 0.00 % ID/g
Residual [^99mTc]Tc-carvedilol percentages of injected dose per Gram in non-targeted organs ([1]; Lung row, 120 min post-injection): 95.371 ± 0.04 % ID/g
[^99mTc]Tc-carvedilol percentages of injected dose per Gram organ ([1]; Lung, 15 min post-injection): 1.290 ± 0.232 % ID/g organ
[^99mTc]Tc-carvedilol percentages of injected dose per Gram organ ([1]; Lung, 30 min post-injection): 7.795 ± 0.060 % ID/g organ
[^99mTc]Tc-carvedilol percentages of injected dose per Gram organ ([1]; Lung, 60 min post-injection): 4.590 ± 0.000 % ID/g organ
[^99mTc]Tc-carvedilol percentages of injected dose per Gram organ ([1]; Lung, 120 min post-injection): 4.579 ± 0.111 % ID/g organ
Residual [^99mTc]Tc-carvedilol percentages of injected dose per Gram in non-targeted organs ([1]; Muscle row, 15 min post-injection): 99.309 ± 0.02 % ID/g
Residual [^99mTc]Tc-carvedilol percentages of injected dose per Gram in non-targeted organs ([1]; Muscle row, 30 min post-injection): 99.727 ± 0.01 % ID/g
Residual [^99mTc]Tc-carvedilol percentages of injected dose per Gram in non-targeted organs ([1]; Muscle row, 60 min post-injection): 99.321 ± 0.02 % ID/g
Residual [^99mTc]Tc-carvedilol percentages of injected dose per Gram in non-targeted organs ([1]; Muscle row, 120 min post-injection): 98.449 ± 0.03 % ID/g
[^99mTc]Tc-carvedilol percentages of injected dose per Gram organ ([1]; Muscle, 15 min post-injection): 0.671 ± 0.195 % ID/g organ
[^99mTc]Tc-carvedilol percentages of injected dose per Gram organ ([1]; Muscle, 30 min post-injection): 0.263 ± 0.215 % ID/g organ
[^99mTc]Tc-carvedilol percentages of injected dose per Gram organ ([1]; Muscle, 60 min post-injection): 0.659 ± 0.217 % ID/g organ
[^99mTc]Tc-carvedilol percentages of injected dose per Gram organ ([1]; Muscle, 120 min post-injection): 1.521 ± 0.201 % ID/g organ
Residual [^99mTc]Tc-carvedilol percentages of injected dose per Gram in non-targeted organs ([1]; Spleen row, 15 min post-injection): 98.118 ± 0.02 % ID/g
Residual [^99mTc]Tc-carvedilol percentages of injected dose per Gram in non-targeted organs ([1]; Spleen row, 30 min post-injection): 95.816 ± 0.01 % ID/g
Residual [^99mTc]Tc-carvedilol percentages of injected dose per Gram in non-targeted organs ([1]; Spleen row, 60 min post-injection): 93.319 ± 0.05 % ID/g
Residual [^99mTc]Tc-carvedilol percentages of injected dose per Gram in non-targeted organs ([1]; Spleen row, 120 min post-injection): 97.701 ± 0.02 % ID/g
[^99mTc]Tc-carvedilol percentages of injected dose per Gram organ ([1]; Spleen, 15 min post-injection): 1.852 ± 0.151 % ID/g organ
[^99mTc]Tc-carvedilol percentages of injected dose per Gram organ ([1]; Spleen, 30 min post-injection): 4.174 ± 0.019 % ID/g organ
[^99mTc]Tc-carvedilol percentages of injected dose per Gram organ ([1]; Spleen, 60 min post-injection): 6.631 ± 0.019 % ID/g organ
[^99mTc]Tc-carvedilol percentages of injected dose per Gram organ ([1]; Spleen, 120 min post-injection): 2.279 ± 0.126 % ID/g organ
Residual [^99mTc]Tc-carvedilol percentages of injected dose per Gram in non-targeted organs ([1]; Stomach row, 15 min post-injection): 98.807 ± 0.01 % ID/g
Residual [^99mTc]Tc-carvedilol percentages of injected dose per Gram in non-targeted organs ([1]; Stomach row, 30 min post-injection): 98.433 ± 0.04 % ID/g
Residual [^99mTc]Tc-carvedilol percentages of injected dose per Gram in non-targeted organs ([1]; Stomach row, 60 min post-injection): 95.706 ± 0.03 % ID/g
Residual [^99mTc]Tc-carvedilol percentages of injected dose per Gram in non-targeted organs ([1]; Stomach row, 120 min post-injection): 97.717 ± 0.06 % ID/g
[^99mTc]Tc-carvedilol percentages of injected dose per Gram organ ([1]; Stomach, 15 min post-injection): 1.193 ± 0.201 % ID/g organ
[^99mTc]Tc-carvedilol percentages of injected dose per Gram organ ([1]; Stomach, 30 min post-injection): 1.524 ± 0.259 % ID/g organ
[^99mTc]Tc-carvedilol percentages of injected dose per Gram organ ([1]; Stomach, 60 min post-injection): 4.263 ± 0.259 % ID/g organ
[^99mTc]Tc-carvedilol percentages of injected dose per Gram organ ([1]; Stomach, 120 min post-injection): 2.239 ± 0.065 % ID/g organ
serum stability [2]: > 92%
